Measured values: ChEMBL document CHEMBL1201862, “PubChem BioAssay data set” (2004)
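All cell lines were grown in 96-well plates and treated with compound for 48 hours. GI50 = concentration required for 50% inhibition of growth.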 Activity calls are given as the source filed them. No stated cut-off is given here; in the data, active = GI50 up to about 1.1 µM and inactive = higher.

Experiments:
Test in all cases: NCI-60 cell line screen, 48 h
A498 = system: A498
A549 = system: A549
COLO 205 = system: COLO 205
HCT-116 = system: HCT-116
K562 = system: K562
MDA-N = system: MDA-N
NCI-H226 = system: NCI-H226
NCI-H23 = system: NCI-H23
NCI/ADR-RES = system: NCI/ADR-RES
OVCAR-4 = system: OVCAR-4
OVCAR-8 = system: OVCAR-8
SF-268 = system: SF-268
SF-539 = system: SF-539
SK-MEL-5 = system: SK-MEL-5
SNB-75 = system: SNB-75
SW-620 = system: SW-620
T47D = system: T47D
UACC-62 = system: UACC-62
HCC 2998 = system: HCC 2998
HOP-62 = system: HOP-62

Measured: GI50

CCOC(=O)c1ccc(-c2cc(C)no2)[nH]1
inactive: A498 63.7 µM | A549 51.5 µM | COLO 205 40 µM | HCT-116 75.3 µM | K562 32.5 µM | MDA-N 22 µM | NCI-H226 > 100 µM | NCI-H23 > 100 µM | NCI/ADR-RES 46.7 µM | OVCAR-4 74.6 µM | OVCAR-8 > 100 µM | SF-268 > 100 µM | SF-539 > 100 µM | SK-MEL-5 81.3 µM | SNB-75 60.1 µM | SW-620 45.3 µM | T47D 68.5 µM | UACC-62 59.8 µM

O=C(N/N=C/c1ccc([N+](=O)[O-])cc1)Nc1ccc(Br)cc1
inactive: A549 > 100 µM | COLO 205 63.2 µM | HCC 2998 26.5 µM | HCT-116 45.8 µM | HOP-62 32.9 µM | K562 54 µM | MDA-N 44.6 µM | NCI-H226 > 100 µM | NCI-H23 47.2 µM | NCI/ADR-RES 49.2 µM | OVCAR-4 49 µM | OVCAR-8 40.9 µM | SF-268 52.2 µM | SF-539 > 100 µM | SK-MEL-5 51.6 µM | SNB-75 > 100 µM | SW-620 52 µM | T47D 36.1 µM | UACC-62 15.3 µM

CC(=O)OCC1OC(N2C(=O)NC(=O)C3C=C4CCCCC4=CC32)CC1OC(C)=O (stereo unspecified)
inactive: A498 > 100 µM | A549 > 100 µM | HCT-116 > 100 µM | HOP-62 > 100 µM | K562 > 100 µM | MDA-N > 100 µM | NCI-H226 > 100 µM | NCI/ADR-RES > 100 µM | OVCAR-4 > 100 µM | OVCAR-8 > 100 µM | SF-268 > 100 µM | SF-539 > 100 µM | SNB-75 56.4 µM | SW-620 > 100 µM | T47D > 100 µM | UACC-62 > 100 µM

CCc1n[nH]c(=O)n1CCCCCCCCn1c(CC)n[nH]c1=O
inactive: A549 > 100 µM | COLO 205 > 100 µM | HCC 2998 > 100 µM | HCT-116 > 100 µM | HOP-62 > 100 µM | K562 > 100 µM | MDA-N > 100 µM | NCI-H226 > 100 µM | NCI-H23 > 100 µM | NCI/ADR-RES > 100 µM | OVCAR-4 > 100 µM | OVCAR-8 > 100 µM | SF-268 > 100 µM | SF-539 > 100 µM | SK-MEL-5 > 100 µM | SNB-75 > 100 µM | SW-620 > 100 µM | T47D > 100 µM | UACC-62 > 100 µM

N#CC1=C(N)OC2=C(CSc3ccccc32)C1c1ccc(Br)cc1 (stereo unspecified)
inactive: A498 13 µM | A549 7.08 µM | COLO 205 2.94 µM | HCT-116 2.96 µM | HOP-62 14.1 µM | K562 3.38 µM | MDA-N 3.32 µM | NCI-H226 11.5 µM | NCI-H23 9.75 µM | NCI/ADR-RES 2.15 µM | OVCAR-4 5.79 µM | OVCAR-8 2.75 µM | SF-268 11.1 µM | SF-539 3.52 µM | SK-MEL-5 11.6 µM | SNB-75 7.62 µM | SW-620 5.22 µM | T47D 4.04 µM | UACC-62 6.65 µM

Cn1c(C(C#N)c2cc(Cl)ncn2)nc2ccccc21 (stereo unspecified)
inactive: A498 > 100 µM | A549 > 100 µM | COLO 205 > 100 µM | HCT-116 > 100 µM | HOP-62 > 100 µM | MDA-N > 100 µM | NCI-H226 > 100 µM | NCI-H23 > 100 µM | NCI/ADR-RES > 100 µM | OVCAR-4 > 100 µM | OVCAR-8 > 100 µM | SF-268 > 100 µM | SF-539 > 100 µM | SK-MEL-5 > 100 µM | SNB-75 > 100 µM | SW-620 > 100 µM | T47D > 100 µM

O=P(O)(O)c1ccc(-c2ccc(I)cc2)cc1
inactive: A549 > 100 µM | COLO 205 > 100 µM | HCC 2998 > 100 µM | HCT-116 > 100 µM | HOP-62 > 100 µM | K562 > 100 µM | MDA-N > 100 µM | NCI-H226 > 100 µM | NCI-H23 > 100 µM | NCI/ADR-RES > 100 µM | OVCAR-4 > 100 µM | OVCAR-8 > 100 µM | SF-268 > 100 µM | SF-539 > 100 µM | SK-MEL-5 > 100 µM | SNB-75 65 µM | SW-620 > 100 µM | T47D > 100 µM | UACC-62 > 100 µM

CC(C)C1=CC23CCC4C(C)(C(=O)O)CCCC4(C)C2CC1C1C(=O)N(c2ccc(C(=O)O)cc2)C(=O)C13 (stereo unspecified)
inactive: A549 > 100 µM | COLO 205 > 100 µM | HCC 2998 > 100 µM | HCT-116 > 100 µM | HOP-62 > 100 µM | K562 > 100 µM | MDA-N > 100 µM | NCI-H226 > 100 µM | NCI-H23 > 100 µM | NCI/ADR-RES > 100 µM | OVCAR-4 > 100 µM | OVCAR-8 > 100 µM | SF-268 > 100 µM | SF-539 > 100 µM | SK-MEL-5 > 100 µM | SNB-75 > 100 µM | SW-620 > 100 µM | T47D > 100 µM | UACC-62 > 100 µM
